# According to US6479670B1, “Selective retinoid acid receptor agonists” (Hoffmann-La Roche Inc., priority 1999, dated 2002):
# System: rat model of elastase-induced emphysema
# Experiment: Repair of alveoli in elastase-induced emphysema (rat model), morphometric analysis
# Type: in vivo, male Sprague Dawley rats
# Conditions: elastase-induced emphysema in rats
# Method: RAR selective agonists were evaluated for its effects on alveolar repair in the rat model of elastase-induced emphysema in rats (Massaro et al. Nature (Medicine, 1997, 3, 675)). Animals were divided into treatment groups of approximately eight. Lung inflammation and alveolar damage was induced in male Sprague Dawley rats by a single instillation of pancreatic elastase(porcine derived, Calbiochem) 2 U/gram body mass. Three weeks post injury all-trans retinoic acid or RAR agonist was dissolved in dimethylsulfoxide (20 mg/ml) and stored at −20 C. Fresh working stocks were prepared fresh daily by dilution in PBS to a final concentration of 2 mg/ml. Animals treated with all-trans retinoic acid (0.5 mg/Kg ip) were dosed once daily by intraperitoneal injection, starting 21 days post injury. Control groups were challenged with elastase and 21 days later treated with Vehicle (DMSO/PBS) for 14 days. Animals were sacrificed 24 hours after the last dose of by exsanguination under deep anesthesia.
# The lungs were inflated with 10% neutral buffered formalin by intratracheal instillation at a constant rate (1 ml/gram body mass/min). The lung was excised and immersed in fixative for 24 hours prior to processing. Standard methods were used to prepare 5 um paraffin sections. Sections were stained with Hematoxylin and Eosin (H%E). Computerized Morphometric analysis was performed to determine the average alveolar size and alveolar number (Table 1).
smiles,measurement,setting,value
"COCC1(C)CCCOc2cc(C#Cc3ccc(C(=O)O)cc3)ccc21 (racemic) [A, 4-(5-methoxymethyl-5-methyl-2,3,4,5-tetrahydro-1-benzo[b]oxepin-8-yl-ethynyl)-benzoic acid]",% repair area,0.1 mg/kg p.o.,45.2%
same,% repair area,0.3 mg/kg p.o.,51.3%
same,% repair area,0.5 mg/kg i.p.,58%
